This passage reports IC50 results from PubChem BioAssay AID602211 (Sanford-Burnham Center for Chemical Genomics, 2012).

Structures are written as SMILES. Activity calls are given as the source filed them.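 Rule for the calls: active = mean IC50 at or below 10 µM; inactive = the rest.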

For the assay, the system named is H9c2 cardiomyocytes, H2O2 protection, ATPLite viability, 2 h. Briefly: protection of H9c2 cardiomyocytes from H2O2 death, dose response, cell-based, ATPLite luminescence, set 2 (AID 602211).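 Note: potency is for protection so actives keep ATP signal up against peroxide killing.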
The term IC50 denotes the concentration that inhibits the measured activity by half. Consider `CCOC(=O)C1=C(C)Nc2ccccc2N=C1NC(=O)c1oc2ccccc2c1COC`, for which the IC50 was 2.89 µM. In the case of `COc1ccc(NC(=O)c2cc(-c3ccc(OC)c(OC)c3)nc3ccccc23)c(OC)c1`, the IC50 is 8.09 µM. For the compound `CC(C)(C)OC(=O)C[C@@H]1C/C=C\C[C@@H](CC(=O)N[C@@H](CO)Cc2ccccc2)C(=O)NC[C@@H](c2ccccc2)OC1=O`, the IC50 was 12.9 µM (inactive). In the case of `Nc1nonc1-n1nnc(C(=O)N/N=C/c2ccccn2)c1CNc1ccccc1` it was 16.3 µM (inactive); in that of `COc1cc(-c2cc(NC=O)c3ncc(-c4ccc(C(C)=O)cc4)n3c2)cc(OC)c1OC`, 3.51 µM; in that of `CCN(CC)S(=O)(=O)c1ccc(N2CCOCC2)c(NC(=O)c2cc(-c3ccccn3)nc3ccccc23)c1`, 1.34 µM. The figure for `O=C1c2ccccc2C(=O)N1CCCCSc1nc2ccccc2c(=O)n1CCCN1CCOCC1` is 8.49 µM; for `COc1cc(C(=O)NCC(=O)N/N=C/c2ccc(-c3cccc([N+](=O)[O-])c3)o2)cc(OC)c1OC` it is 9.76 µM; for `Cc1ccc(C=NNc2nc3c([nH]2)c(=O)n(C)c(=O)n3C)cc1` it is 3.93 µM. The figure for `Cc1nn2c(-c3cccc(NC(=O)c4ccco4)c3)nnc2c2ccccc12` is 1.66 µM; for `CC12C=CC(=O)CC1CCC1C2CCC2(C)C(O)C(O)CC12` (stereo not drawn) it is 2.62 µM. In the case of `O=C(c1cc(=O)[nH]c2ccccc12)N1CCN(S(=O)(=O)c2ccc(Cl)cc2)CC1`, the IC50 is 1.1 µM. The figure for `NC(=O)c1cccc(-c2coc3c(C(=O)NCCc4ccccc4)cccc23)c1` is > 79 µM (inactive).

As to `O=C(NCC(=O)N(Cc1cccs1)C(C(=O)NC1CCCCC1)c1ccco1)c1ccco1` (stereo not drawn), the IC50 was 10.6 µM (inactive). In the case of `CC1(C)Oc2ccc3ccc(=O)oc3c2/C(=C/Nc2ccccn2)C1=O` it was > 79 µM (inactive).

For `COc1cc(/C=C(\C#N)c2nc3ccc(C)cc3[nH]2)c([N+](=O)[O-])cc1OC`, the IC50 was 9.31 µM.

`COCCNC(=O)COC(=O)c1ccc(OCC(=O)Nc2ccccc2OC)c(OC)c1`: the IC50 was 20.4 µM (inactive). `CC(C)(C)OC(=O)N1CCC[C@H]1c1nnc(SCC(=O)Nc2ccc(Br)cc2)o1`: the IC50 was 5.87 µM. In the case of `C[C@@H]1ON(C)[C@H]2C[C@H]3c4[nH]c5ccc(-c6ccc7c(c6)OCO7)cc5c4CCN3C[C@@H]12` it was > 79 µM (inactive); in that of `Cc1cc(NC(=O)C2CCCCC2)nc2c1c(=O)oc1ccccc12`, 23.7 µM (inactive); in that of `CC(=O)c1ccc(-c2[nH]c3ccccc3c2CCN2C(=O)c3ccccc3C2=O)cc1`, 9.73 µM.

As for `COc1ccc(N(Cc2cc3cc(OC)ccc3[nH]c2=O)C(=O)c2cccnc2)cc1`, the IC50 is 19.1 µM (inactive).

In the case of `OC1CCN(c2c3c(nc4cc(-c5cccc(F)c5)nn24)CCCC3)CC1`, the IC50 is 6.02 µM. Regarding `Cc1nn(C)cc1C(C(=O)NC1CCCCC1)N(C(=O)Cc1cccs1)c1ccc(Cl)cc1` (stereo not drawn), the IC50 was 8.18 µM. On to `COc1ccc(-c2nn(-c3ccccc3)cc2C(=O)Nc2nccs2)cc1`, for which the IC50 was 8.75 µM. In the case of `COc1ccc(-c2cc(C(=O)N(C)Cc3nc4ccccc4c(=O)[nH]3)c3ccccc3n2)cc1OC` it was 1.71 µM; in that of `NS(=O)(=O)c1ccc(N=Cc2c(O)n(-c3nccs3)c(=O)c3ccccc23)cc1`, 4.2 µM; in that of `O=C(NCc1ccco1)c1cc(-c2cccnc2)nc2ccc(Cl)cc12`, 4.95 µM. In the case of `Cc1ccc2[nH]c(=O)c(CN(Cc3ccco3)S(=O)(=O)c3c(C)ccc4nsnc34)cc2c1` it was 1.32 µM; in that of `COc1cc(C(=O)N/N=C/c2ccc(OC(=O)c3ccccc3Cl)cc2)ccc1O`, > 79 µM (inactive). On to `COc1ccc(C(C(=O)NCc2ccccc2)N(Cc2ccco2)C(=O)c2snc(C(N)=O)c2N)cc1` (stereo not drawn), for which the IC50 was 3.63 µM. In the case of `COc1ccc2[nH]c(=O)c(CN(Cc3cccnc3)S(=O)(=O)c3ccccc3F)cc2c1` it was 0.43 µM; in that of `CN(C)S(=O)(=O)n1cc(/C=C(\NC(=O)c2ccccc2F)C(=O)NCCN2CCOCC2)c2ccccc21`, 30.8 µM (inactive). The figure for `COc1ccc(-c2cc(NC=O)c3ncc(-c4ccccc4)n3c2)cc1OC` is > 79 µM (inactive); for `CCOC(=O)C1CCN(c2cc3c(cc2NC(=O)c2ccccc2Cl)n(C)c(=O)n3C)CC1` it is 5.6 µM; for `COc1cccc(-c2cnc3c(NC(C)=O)cc(-c4cccc(NS(C)(=O)=O)c4)cn23)c1` it is 7.84 µM. As to `Cn1c(=O)[nH]c(=O)c2c1nc(Br)n2CC(O)COc1ccc(Cl)cc1` (stereo not drawn), the IC50 was 2.44 µM.

On to `COc1ccc2c(c1OC)C(=O)N1c3ccccc3C(=O)N(c3ccccc3)C21` (stereo not drawn), for which the IC50 was 6.9 µM.

Consider `Cc1ccc(NC(=O)c2nc[nH]c2C(=O)NCCCNC(=O)c2[nH]cnc2C(=O)Nc2ccc(C)cc2)cc1`, for which the IC50 was 1.1 µM. In the case of `COCCn1cnc2c(c1=O)c1nc3ccccc3nc1n2/N=C/c1cccc(OC)c1` it was 13.6 µM (inactive); in that of `COc1ccc(NC(=O)c2cc3c(=O)n(C)c4ccccc4c3n2C)cc1OC`, 3.23 µM; in that of `CC(=O)NCc1ccc(-c2csc(NC(=O)CCc3nc4ccccc4c(=O)[nH]3)n2)s1`, 4.3 µM.

Take `COc1ccc(-c2cc3nc(-c4ccccc4)cc(N4CCN(C(C)=O)CC4)n3n2)cc1`: the concentration for half-maximal inhibition (IC50) was 8.73 µM. In the case of `CCN(C[C@H]1N[C@@](Cc2ccccc2)(C(=O)OC)[C@H]2C(=O)N(C)C(=O)[C@@H]12)S(=O)(=O)c1ccc(OC)cc1` it was 21.1 µM (inactive); in that of `COc1ccc(NC(=O)c2cc(-c3ccccn3)nc3ccccc23)cc1S(=O)(=O)N(C)C`, 2.46 µM; in that of `Cc1cc(NC(=O)c2cccs2)cc(-c2nc3ncccc3o2)c1O`, 3.76 µM. In the case of `COc1cc(NC(=O)c2cc([N+](=O)[O-])ccc2NC(=O)CN2CCN(c3ccccn3)CC2)cc(OC)c1` it was 2.58 µM; in that of `COc1cc(/C=N\NC(=O)c2cccnc2)ccc1OC(=O)c1ccccc1Cl`, 30 µM (inactive); in that of `CCN(CC)S(=O)(=O)c1ccc(Nc2nc3ccccc3n3nnnc23)cc1`, 4.92 µM. The figure for `O=C(O)c1ccc2c(c1)S(=O)(=O)c1cc(N3CCN(c4cnccn4)CC3)ccc1C2=O` is > 79 µM (inactive); for `COc1ccc(-n2nc(C(=O)NCC(=O)Nc3cc(OC)c(OC)c(OC)c3)c3ccccc3c2=O)cc1Cl` it is 3.02 µM. On to `COc1cc(OC)c(-c2nn3c(-c4ccco4)nnc3s2)cc1OC`, for which the IC50 is 4.56 µM.

As for `CCOC(=O)c1cccc(Nc2nc(-c3cccnc3)nc3ccccc23)c1`, the IC50 was > 79 µM (inactive).

Consider `COc1ccc(-c2cc3nc(C)cc(N4CCN(C(=O)c5ccoc5)CC4)n3n2)cc1`, for which the IC50 is 69.1 µM (inactive). Turning to `CC(=O)Nc1cccc(-c2cc(NC=O)c3ncc(-c4cccc(C(C)=O)c4)n3c2)c1`, the IC50 was 22.1 µM (inactive). In the case of `COC(=O)c1cc2ccccn2c2c(C(=O)OC)c(C(=O)OC)cc1-2` it was 2.25 µM; in that of `COc1cc(/C=N/NC(=O)c2cccnc2)ccc1OS(=O)(=O)c1ccc(F)cc1`, 3.17 µM. In the case of `Nc1c(C(=O)N/N=C/c2cccnc2)oc2nc(-c3ccccc3)cc(-c3ccco3)c12` it was 2.86 µM; in that of `CCOc1cccc(Nc2cc3n(c(=O)n2)CCc2cc(OC)c(OC)cc2-3)c1`, 23 µM (inactive).

On to `COc1ccc(Nc2nnc(-c3ccc(O)cc3)c3ccccc23)cc1C(N)=O`, for which the IC50 was 11.3 µM (inactive). The figure for `CCOc1ccc(C(C(=O)NC2CCCC2)N(C(=O)c2snc(C(N)=O)c2N)c2cccc(O)c2)cc1` (stereo not drawn) is 3.28 µM; for `C=CC[C@@H](CC(=O)NCCO)C(=O)NC[C@H](OC(=O)[C@@H](CC=C)Cc1ccc(F)cc1)c1ccccc1` it is 3.38 µM.

Turning to `COc1cccc(CN(C)C(=O)C(Cc2ccccc2)NC(=O)c2ccccc2)c1OC` (stereo not drawn), the IC50 is 6.8 µM.

Regarding `Cn1nc(C(=O)Nc2nc(-c3ccccn3)cs2)c2ccccc2c1=O`, the IC50 was 6.13 µM. For `Cc1nc(N2CCN(c3ccccn3)CC2)c2c(C)c(C(=O)Nc3ccccc3F)sc2n1`, the IC50 is 4.04 µM. The figure for `CC(C)CC(C(=O)NC1CCCCC1)N(Cc1cccs1)C(=O)c1snc(C(N)=O)c1N` (stereo not drawn) is 10.2 µM (inactive); for `COc1ccc(-c2cc(C(=O)Nc3ccccc3N3CCOCC3)c3ccccc3n2)cc1OC` it is 4.52 µM. The figure for `COc1cc(/C=C(\C#N)C(=O)Nc2ccccc2F)ccc1OCCN1CCOCC1` is 15.9 µM (inactive); for `CCOC(=O)C1=C(COC(=O)/C=C/c2ccc(F)cc2)NC(=O)NC1C` (stereo not drawn) it is 5.54 µM; for `CCOC(=O)C1=C(C)N=c2s/c(=C\c3ccncc3)c(=O)n2C1c1ccc2c(c1)OCO2` (stereo not drawn) it is 8.34 µM.

Take `O=c1[nH]c(CSc2nnc(-c3cccnc3)n2C2CCCCC2)nc2ccccc12`: the IC50 was 48.2 µM (inactive). The figure for `CCCc1cc(N2CCN(C(=O)c3ccco3)CC2)n2c(nc3ccccc32)c1C#N` is > 79 µM (inactive). The figure for `CCOc1cccc(-c2nn3c(-c4ccccn4)nnc3s2)c1` is 6.55 µM; for `O=C(N/N=C/c1ccncc1)c1ccc(COc2cccc3cccnc23)cc1` it is 25.3 µM (inactive); for `Cn1c(C(=O)NCCc2ccsc2)cc2c(=O)n(C)c3ccccc3c21` it is 4.74 µM.

Regarding `CC(=O)c1ccc(-c2cnc3c(NC=O)cc(-c4ccc(C(=O)NC5CC5)cc4)cn23)cc1`, the IC50 was 3.38 µM. Turning to `COC(=O)c1cc(OC)c(OC)cc1NC(=O)c1ccc(C)o1`, the IC50 was 3.98 µM. The figure for `N#Cc1ccccc1S(=O)(=O)N1CCN(c2nc(-c3cccnc3)nc3ccccc23)CC1` is > 79 µM (inactive); for `O=C(CSc1nnc(-c2ccccc2)n1Cc1ccccc1)NNC(=O)c1ccccc1O` it is 4.2 µM; for `Cc1ncc(CO)c2c1Oc1nc(-c3ccccc3)nc(SCC(=O)N3CCCCC3)c1C2` it is > 79 µM (inactive).

With `CCOc1ncccc1C(=O)Nc1cccc(-c2nc3cccnc3s2)c1`, the IC50 was 3.51 µM. The figure for `C#CCOc1nc(Nc2cccc([N+](=O)[O-])c2)nc(OCC#C)n1` is > 79 µM (inactive); for `COc1ccc2c(c1OC)c(=O)n1c3ccc(OC(C)C(=O)NCCN4CCOCC4)cc3c3ccnc2c31` (stereo not drawn) it is 13.7 µM (inactive).
